From patent publication US20230203060A1 (GENFLEET THERAPEUTICS (SHANGHAI) INC., priority 2020, published 2023)
Where two headings read alike, the source gives them in different places.

Experiments:
Assay type in all cases: cell-based, human
[1] = tested on: KRAS G12C mutant NCI-H358 cells; test: Cell proliferation inhibition experiment, 3D spheroid, CellTiter-Glo, NCI-H358; conditions: NCI-H358 (KRAS G12C mutant) 3D spheroid, 5 days with compound, CellTiter-Glo, read-out: H358 IC50
Text: (§1) Raw materials and instruments: NCI-H358 purchased from ATCC; article number: CRL-5807; batch number: 70010825; A549 purchased from ATCC; article number: CCL-185; batch number: 70007820; RPMI1640 purchased from Gibco; article number: 11875-093; batch number: 2152748; F-12K purchased from Gibco; article number: 21127-022; batch number: 2185853; FBS purchased from Gibco; article number: 10099-141; batch number: 2109290CP; PS purchased from Gibco; article number: 15140-122; batch number: 2145451; Trypsin-EDTApurchased from Gibco; article number: 25200-072; batch number: 2085552; CellTiter Glo working solution purchased from Promega; article number: G9683; batch number: 398478; DMSO purchased from VWR AMRESCO; article number: 0231-500ML; batch number: 18C0656168; 384-well spheroid plate purchased from Corning; article number: 3830; batch number: 27519032; white opaque 384-well plate purchased from Corning; article number: 3570; batch number: 26819023; microplate reader purchased from PerkinElmer; model: Envision MLD2105-0020; equipment number 1050369.
(§2) NCI-H358 is a KRAS G12C mutant human non-small cell lung cancer cell line, cultured in 10% FBS RPMI-1640+1% PS culture medium; and A549 is a KRAS G12S mutant human lung adenocarcinoma cell line, cultured in 10% FBS F-12K+1% PS culture medium. Cells at logarithmic growth stage were taken, digested with trypsin-EDTA, then collected and counted. H358 was adjusted to 1.8 E4 cells/mL with 2% FBS RPMI-1640 culture medium, and A549 was adjusted to 8.9 E3 cells/mL with 2% FBS F-12K culture medium; 800 (45 μL) H358 or 400 (45 μL) A549 were inoculated respectively in a 384-well spheroid plate and cultured overnight to establish a 3D cell model. A 3.16-fold gradient concentration stock solution of 1000× compound was prepared with DMSO, and diluted 100-fold to 10× compound stock solution with 2% FBS culture medium. On the second day after cell inoculation, 5 μL of 10× compound stock solution was added to each cell culture well, with a final concentration of 1× and a DMSO content of 0.1%. DMSO was used as experimental control (control), and 2% FBS culture medium was used as blank control (blank). After 5 days of compound cell culture, 25 μL of CellTiter-Glo working solution was added to each well, mixed well at 400 rpm and incubated for 30 minutes. After standing at room temperature for 30 minutes, 40 μL of the mixed solution was transferred to a white opaque 384-well plate, and the luminescence chemiluminescence value was read with a microplate reader. The cell proliferation inhibition rate IR (%)=(RLU control -RLU compound)/(RLU control -RLU blank) x100% was calculated. The gradient dilution concentration of the compound and the corresponding cell proliferation inhibition rate were fitted by Prism 6 four-parameter method, and the IC50 value was calculated. The inhibitory activity of the compounds prepared in the above embodiments of the present disclosure on KRAS G12C mutant NCI-H358 cells was 0.0001 μM to 0.5 μM; the inhibitory activity of some compounds on KRAS G12C mutant NCI-H358 cells was 0.001 μM to 0.1 μM or 0.001 μM to 0.05 μM.

[2] = tested on: A549 cells (KRAS G12S mutant); test: Cell proliferation inhibition experiment, 3D spheroid, CellTiter-Glo, A549; conditions: A549 (KRAS G12S mutant) 3D spheroid, 5 days with compound, CellTiter-Glo, read-out: A549 IC50
Text: as §1, §2

[3] = tested on: KRAS G12C mutant MIA PaCa-2 cells; test: Cell proliferation inhibition experiment, 3D spheroid, CellTiter-Glo, MIA PaCa-2; conditions: 3D cell model in 384-well spheroid plate, 5 days, CellTiter-Glo, read-out: MIA-PaCa2 IC50
Text: Raw materials and instruments: MIA PaCa-2 purchased from ATCC; article number: CRL-1420; batch number: 63143594; DMEM purchased from Gibco; article number: 11995-065; batch number: 2186878; FBS purchased from Gibco; article number: 10099-141; batch number: 2109290CP; Horse Serum purchased from Gibco; article number: 16050-122; batch number: 1818976; PS purchased from Gibco; article number: 15140-122; batch number: 2145451; Trypsin-EDTA purchased from Gibco; article number: 25200-072; batch number: 2085552; CellTiter Glo working solution purchased from Promega; article number: G9683; batch number 398478; DMSO purchased from VWR AMRESCO; article number: 0231-500ML; batch number: 18C0656168; 384-well spheroid plate purchased from Corning; article number: 3830; batch number: 27519032; white opaque 384-well plate purchased from Corning; article number: 3570; batch number: 26819023; microplate reader purchased from PerkinElmer; model: Envision MLD2105-0020; equipment number 1050369.
MIA PaCa-2 is a KRAS G12C mutant human pancreatic cancer cell line, cultured in 10% FBS+2.5% Horse Serum DMEM+1% PS culture medium; cells at logarithmic growth stage were taken, digested with trypsin-EDTA, then collected and counted, and 200 MIA PaCa-2 were inoculated in a 384-well spheroid plate, respectively, and cultured overnight to establish a 3D cell model. A 3.16-fold gradient concentration stock solution of 1000× compound was prepared with DMSO, and diluted 100-fold to 10× compound stock solution with culture medium. On the second day after cell inoculation, 10× compound stock solution was added to each cell culture well, with a final concentration of 1× and a DMSO content of 0.1%. DMSO was used as experimental control (control), and culture medium was used as blank control (blank). After 5 days of compound cell culture, 30 μL of CellTiter-Glo working solution was added to each well, mixed well and incubated for 30 minutes. After standing at room temperature for 30 minutes, 40 μL of the mixed solution was transferred to a white opaque 384-well plate, and the luminescence chemiluminescence value was read with a microplate reader. The cell proliferation inhibition rate IR (%)=(RLU control -RLU compound)/(RLU control−RLU blank)×100% was calculated. The gradient dilution concentration of the compound and the corresponding cell proliferation inhibition rate were fitted by XLFit four-parameter method, and the IC50 value was calculated. The inhibitory activity of the compounds prepared in the above embodiments of the present disclosure on KRAS G12C mutant MIA PaCa-2 cells was 0.0001 μM to 0.5 μM; the inhibitory activity of some compounds on KRAS G12C mutant MIA PaCa-2 cells was 0.001 μM to 0.1 μM or 0.001 μM to 0.05 μM.

[4] = Homo sapiens, MIA PaCa-2, 120 h

Row | Structure (SMILES) | IC50 ([1]; Homo sapiens, NCI-H358, 120 h) | IC50 ([2]; Homo sapiens, A549, 120 h) | IC50 [3, 4] | IC50 [1] | IC50 [2] | IC50 [3]
1 | C=CC(=O)N1CCN2C(=O)c3c(N4C[C@H]5CC[C@@H](C4)O5)nc(-c4c(O)cccc4F)c(Cl)c3OC[C@H]2C1 [Z62, (6aR)-8-acryloyl-4-chloro-1-((1R,5S)-8-oxa-3-azabicyclo[3.2.1]octan-3-yl)-3-(2-fluoro-6-hydroxyphenyl)-6,6a,7,8,9,10-hexahydro-12H-pyrazino[2,1-c]pyrido[3,4-f][1,4]oxazepin-12-one] | 23 nM | > 10000 nM | 29 nM | – | – | –
2 | C=CC(=O)N1CCN2C(=O)c3c(N4CCN(C5COC5)CC4C)nc(-c4c(O)cccc4F)c(Cl)c3OC[C@H]2C1 (stereo partly drawn) [Z239, (6aR)-8-acryloyl-4-chloro-3-(2-fluoro-6-hydroxyphenyl)-1-(2-methyl-4-(oxetan-3-yl)piperazin-1-yl)-6,6a,7,8,9,10-hexahydro-12H-pyrazino[2,1-c]pyrido[3,4-f][1,4]oxazepin-12-one] | 22.9 nM | 13800 nM | 41.6 nM | – | – | –
3 | C=CC(=O)N1CCN2C(=O)c3c(N4CCC5(CCOC5)C4)nc(-c4c(O)cccc4F)c(Cl)c3OC[C@H]2C1 (stereo partly drawn) [Z59, (6aR)-8-acryloyl-4-chloro-3-(2-fluoro-6-hydroxyphenyl)-1-(2-oxa-7-azaspiro[4.4]nonan-7-yl)-6,6a,7,8,9,10-hexahydro-12H-pyrazino[2,1-c]pyrido[3,4-f][1,4]oxazepin-12-(6aH)-one] | – | – | – | 19 nM | > 30000 nM | 27 nM
4 | C=CC(=O)N1CCN2C(=O)c3c(O[C@H]4CCN(C)C4)nc(-c4c(O)cccc4F)c(Cl)c3OC[C@H]2C1 [Z65, (6aR)-8-acryloyl-4-chloro-3-(2-fluoro-6-hydroxyphenyl)-1-(((S)-1-methylpyrrolidin-3-yl)oxy)-6,6a,7,8,9,10-hexahydro-12H-pyrazino[2,1-c]pyrido[3,4-f][1,4]oxazepin-12-one] | 51 nM | > 30000 nM | 38 nM | – | – | –
5 | C=CC(=O)N1CCN2C(=O)c3c(-c4c(F)cccc4OC)nc(-c4c(O)cccc4F)c(Cl)c3OC[C@H]2C1 [Z55, (6aR)-8-acryloyl-4-chloro-3-(2-fluoro-6-hydroxyphenyl)-1-(2-fluoro-6-methoxyphenyl)-6,6a,7,8,9,10-hexahydro-12H-pyrazino[2,1-c]pyrido[3,4-f]oxazepin-12-one] | – | – | – | 134 nM | > 1000 nM | 361 nM
6 | C=CC(=O)N1CCN2C(=O)c3c(N4CCC5(CC5)C4)nc(-c4c(O)cccc4F)c(Cl)c3OC[C@H]2C1 [Z44, (6aR)-8-acryloyl-4-chloro-3-(2-fluoro-6-hydroxyphenyl)-1-(5-azaspiro[2.4]heptan-5-yl)-6,6a,7,8,9,10-hexahydro-12H-pyrazino[2,1-c]pyrido[3,4-f][1,4]oxazepin-12-one] | 26 nM | > 5000 nM | 51 nM | – | – | –
7 | C=CC(=O)N1CCN2C(=O)c3c(N4CCOC[C@@H]4CC)nc(-c4c(O)cccc4F)c(Cl)c3OC[C@H]2C1 [Z52, (6aR)-8-acryloyl-4-chloro-1-((S)-3-ethylmorpholino)-3-(2-fluoro-6-hydroxyphenyl)-6,6a,7,8,9,10-hexahydro-12H-pyrazino[2,1-c]pyrido[3,4-f][1,4]oxazepin-12-one] | 36 nM | > 5000 nM | 39 nM | – | – | –
8 | C=CC(=O)N1CCN2C(=O)c3c(N4CCO[C@H](C)C4)nc(-c4c(O)cccc4F)c(Cl)c3OC[C@H]2C1 [Z24, (6aR)-8-acryloyl-4-chloro-3-(2-fluoro-6-hydroxyphenyl)-1-((R)-2-methylmorpholino)-6,6a,7,8,9,10-hexahydro-12H-pyrazino[2,1-c]pyrido[3,4-f][1,4]oxazepin-12-one] | 26 nM | > 5000 nM | 36 nM | – | – | –
9 | C=CC(=O)N1CCN2C(=O)c3c(-c4ccncc4)nc(-c4c(O)cccc4F)c(Cl)c3OC[C@H]2C1 [Z54] | 124 nM | > 30000 nM | 169 nM | – | – | –
10 | C=CC(=O)N1CCN2C(=O)c3c(N4CCC5(CCC5)C4)nc(-c4c(O)cccc4F)c(Cl)c3OC[C@H]2C1 [Z35, (6aR)-8-actyloyl-4-chloro-3-(2-fluoro-6-hydroxyphenyl)-1-(6-azaspiro[3.4]octan-6-yl)-6,6a,7,8,9,10-hexahydro-12H-pyrazino[2,1-c]pyrido[3,4-f][1,4]oxazepin-12-one] | – | – | – | 21 nM | > 5000 nM | 36 nM
11 | C=CC(=O)N1CCN2C(=O)c3c(N4CCOC[C@H]4C)nc(-c4c(O)cccc4F)c(Cl)c3OC[C@H]2C1 [Z27, (6aR)-8-acryloyl-4-chloro-3-(2-fluoro-6-hydroxyphenyl)-1-((R)-3-methylmorpholino)-6,6a,7,8,9,10-hexahydro-12H-pyrazino[2,1-c]pyrido[3,4-f][1,4]oxazepin-12-one] | 33 nM | > 5000 nM | 41 nM | – | – | –
12 | C=CC(=O)N1CCN2C(=O)c3c(N(C)C4CCOCC4)nc(-c4c(O)cccc4F)c(Cl)c3OC[C@H]2C1 [Z25, (6aR)-8-acryloyl-4-chloro-3-(2-fluoro-6-hydroxyphenyl)-1-(methyl(tetrahydro-2H-pyran-4-yl)amino)-6,6a,7,8,9,10-hexahydro-12H-pyrazino[2,1-c]pyrido[3,4-f][1,4]oxazepin-12-one] | 58 nM | > 20000 nM | 81 nM | – | – | –
